Laboratory results: patent US20260284044A1, “PHARMACEUTICAL COMPOSITIONS OF VARENICLINE AND PROCESS THEREOF” (TENSHI KAIZEN L PRIVATE LIMITED, priority 2023, published 2026)

Columns and labels:
[1] = FDA, cited from earlier work
[2] = N-nitroso varenicline content of API and tablets, initial and on stability storage; type: physicochemical

Molecule | Intake limit considered reasonably safe for humans ([1]; based on lifetime exposure) | Interim acceptable intake limit ([1]; interim limit for distribution in the US) | Results (nitroso varenicline) ([2]; Batch API (EL-01-A179-2001003), limit NMT 18.5 ppm) | Initial (ppm) (N-nitroso varenicline) ([2]; Orally disintegrating tablets 1 mg and API, initial data)
O=NN1CC2CC(C1)c1cc3nccnc3cc12 [N-nitroso-varenicline] | 37 nanograms per day | ≤ 185 ng per day |  | 
(2R,3R)-2,3-dihydroxybutanedioic acid;5,8,14-triazatetracyclo [10.3.1.02,11.04,9]hexadeca-2,4,6,8,10-pentaene [Varenicline API] |  |  | Less than 2 ppm | 1.73 ppm
